The nature of series [1]: Stability in human serum assessed as full-length compound remaining after 10 mins by anion-exchange HPLC. The series is classed as ADME, cell-free. As to conditions: read-out: Stability.
In series [2] the target is T1, Toll-like receptor 8 (Homo sapiens) (UniProt Q9NR97).
T1 sequence (whole entry): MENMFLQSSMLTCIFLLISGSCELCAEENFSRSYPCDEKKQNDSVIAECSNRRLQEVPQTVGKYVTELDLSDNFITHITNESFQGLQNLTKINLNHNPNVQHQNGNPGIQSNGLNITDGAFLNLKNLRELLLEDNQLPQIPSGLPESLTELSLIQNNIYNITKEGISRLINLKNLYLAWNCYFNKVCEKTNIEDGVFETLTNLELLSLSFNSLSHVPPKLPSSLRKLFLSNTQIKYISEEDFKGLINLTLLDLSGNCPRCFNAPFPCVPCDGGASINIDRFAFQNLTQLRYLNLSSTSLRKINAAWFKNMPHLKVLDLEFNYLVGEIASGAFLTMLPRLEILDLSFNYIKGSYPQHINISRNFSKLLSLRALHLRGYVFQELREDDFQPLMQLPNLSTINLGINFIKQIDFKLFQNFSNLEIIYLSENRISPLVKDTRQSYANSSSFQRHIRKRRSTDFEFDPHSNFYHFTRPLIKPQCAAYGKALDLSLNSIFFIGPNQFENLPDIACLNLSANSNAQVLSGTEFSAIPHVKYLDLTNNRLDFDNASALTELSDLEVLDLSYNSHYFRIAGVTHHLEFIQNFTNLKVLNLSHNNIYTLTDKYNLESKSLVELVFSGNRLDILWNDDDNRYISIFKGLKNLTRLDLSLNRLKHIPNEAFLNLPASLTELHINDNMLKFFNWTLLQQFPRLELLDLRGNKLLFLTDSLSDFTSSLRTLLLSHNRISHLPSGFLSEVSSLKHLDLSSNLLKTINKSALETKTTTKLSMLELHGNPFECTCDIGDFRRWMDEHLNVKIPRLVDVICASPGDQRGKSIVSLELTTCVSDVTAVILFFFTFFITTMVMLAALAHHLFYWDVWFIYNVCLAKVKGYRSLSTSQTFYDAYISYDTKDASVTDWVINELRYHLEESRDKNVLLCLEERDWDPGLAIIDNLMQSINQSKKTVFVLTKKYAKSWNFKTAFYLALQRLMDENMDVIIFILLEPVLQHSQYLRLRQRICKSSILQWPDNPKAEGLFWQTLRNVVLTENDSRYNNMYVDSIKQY
The series can be described thus: Agonist activity at human TLR8 expressed in HEK293XL cells assessed as NF-kappaB activation after 18 hrs. The series is classed as functional, cell-based.

Series [3] deals with T2, Toll-like receptor 7 (Homo sapiens) (UniProt Q9NYK1).
T2 sequence (whole entry): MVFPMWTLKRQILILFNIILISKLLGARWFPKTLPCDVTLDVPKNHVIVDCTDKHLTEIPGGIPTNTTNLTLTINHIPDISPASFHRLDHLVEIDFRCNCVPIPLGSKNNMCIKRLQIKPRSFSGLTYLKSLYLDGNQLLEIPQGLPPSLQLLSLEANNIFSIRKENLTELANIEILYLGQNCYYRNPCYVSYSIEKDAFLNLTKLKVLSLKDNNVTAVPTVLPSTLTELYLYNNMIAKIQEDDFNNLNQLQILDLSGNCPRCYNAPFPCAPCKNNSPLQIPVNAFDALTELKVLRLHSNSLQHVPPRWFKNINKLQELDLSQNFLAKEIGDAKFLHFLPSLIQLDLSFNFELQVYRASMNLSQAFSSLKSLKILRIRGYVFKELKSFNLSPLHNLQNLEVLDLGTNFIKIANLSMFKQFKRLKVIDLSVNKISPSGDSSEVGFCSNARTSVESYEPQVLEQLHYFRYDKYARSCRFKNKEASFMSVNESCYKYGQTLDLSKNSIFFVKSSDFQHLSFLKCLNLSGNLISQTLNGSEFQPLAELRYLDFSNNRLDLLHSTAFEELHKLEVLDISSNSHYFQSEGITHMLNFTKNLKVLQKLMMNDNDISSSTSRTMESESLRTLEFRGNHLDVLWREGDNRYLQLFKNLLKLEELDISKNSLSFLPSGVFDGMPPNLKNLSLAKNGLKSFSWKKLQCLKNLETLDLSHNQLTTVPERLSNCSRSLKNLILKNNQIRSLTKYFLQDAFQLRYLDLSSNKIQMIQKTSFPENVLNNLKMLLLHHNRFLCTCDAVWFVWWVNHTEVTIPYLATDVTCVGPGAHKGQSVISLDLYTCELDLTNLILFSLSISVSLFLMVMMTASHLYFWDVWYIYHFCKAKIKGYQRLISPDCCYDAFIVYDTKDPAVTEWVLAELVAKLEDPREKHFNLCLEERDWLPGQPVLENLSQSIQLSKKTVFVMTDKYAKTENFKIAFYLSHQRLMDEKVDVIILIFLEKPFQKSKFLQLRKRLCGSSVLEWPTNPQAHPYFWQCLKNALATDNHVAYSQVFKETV
The series can be described thus: Agonist activity at human TLR7 expressed in HEK293XL cells assessed as NF-kappaB activation after 18 hrs. Type of series: functional, cell-based.

In series [4] the test system is PBMC. As to the kind of experiment: Stimulation of immune response in human PBMC assessed as induction of IL1-beta production at 150 ug/ml after 24 hrs. Type of series: functional, cell-based.
The subject of series [5] is PBMC. As to the kind of experiment: Stimulation of immune response in human PBMC assessed as induction of IL2R level at 150 ug/ml after 24 hrs. The series is classed as functional, cell-based.
The test system of series [6] is PBMC. As to the kind of experiment: Stimulation of immune response in human PBMC assessed as induction of IL8 production at 150 ug/ml after 24 hrs. The series is classed as functional, cell-based.
The subject of series [7] is PBMC. The series can be described thus: Stimulation of immune response in human PBMC assessed as induction of IL10 production at 150 ug/ml after 24 hrs. Type of series: functional, cell-based.
Series [8] relates to PBMC. As to the kind of experiment: Stimulation of immune response in human PBMC assessed as induction of IL12 production at 150 ug/ml after 24 hrs. The series is classed as functional, cell-based.
Series [9] concerns PBMC. As to the kind of experiment: Stimulation of immune response in human PBMC assessed as induction of IFNalpha production at 150 ug/ml after 24 hrs. The series is classed as functional, cell-based.
In series [10] the test system is PBMC. The series can be described thus: Stimulation of immune response in human PBMC assessed as induction of IFN-gamma production at 150 ug/ml after 24 hrs. The series is classed as functional, cell-based.
Series [11] has as its system PBMC. The series can be described thus: Stimulation of immune response in human PBMC assessed as induction of MCP1 production at 150 ug/ml after 24 hrs. The series is classed as functional, cell-based.
Series [12] has as its system PBMC. As to the kind of experiment: Stimulation of immune response in human PBMC assessed as induction of RANTES production at 150 ug/ml after 24 hrs. The series is classed as functional, cell-based.
Series [13] deals with PBMC. The series can be described thus: Stimulation of immune response in human PBMC assessed as induction of MIP1alpha production at 150 ug/ml after 24 hrs. Type of series: functional, cell-based.
In series [14] the test system is PBMC. As to the kind of experiment: Stimulation of immune response in human PBMC assessed as induction of MIP1beta production at 150 ug/ml after 24 hrs. Type of series: functional, cell-based.
Series [15] deals with PBMC. The series can be described thus: Stimulation of immune response in human PBMC assessed as induction of TNFalpha production at 150 ug/ml after 24 hrs. Type of series: functional, cell-based.
The species entered for series [16] is Homo sapiens. The series can be described thus: Stimulation of immune response in human pDC assessed as induction of IFN-gamma production at 150 ug/ml after 24 hrs. The series is classed as functional.
The species named for series [17] is Homo sapiens. As to the kind of experiment: Stimulation of immune response in human pDC assessed as induction of IFNalpha production at 150 ug/ml after 24 hrs. The series is classed as functional.
The species named for series [18] is Homo sapiens. The series can be described thus: Stimulation of immune response in human pDC assessed as induction of IL12 production at 150 ug/ml after 24 hrs. The series is classed as functional.
For series [19], the species on record is Homo sapiens. As to the kind of experiment: Stimulation of immune response in human pDC assessed as induction of TNFalpha production at 150 ug/ml after 24 hrs. The series is classed as functional.
Series [20] is filed under the species Homo sapiens. The series can be described thus: Stimulation of immune response in human pDC assessed as induction of MIP1alpha production at 150 ug/ml after 24 hrs. The series is classed as functional.
For series [21], the species on record is Homo sapiens. As to the kind of experiment: Stimulation of immune response in human pDC assessed as induction of MIP1beta production at 150 ug/ml after 24 hrs. Type of series: functional.
The test system of series [22] is Mus musculus. As to the kind of experiment: Stimulation of immune response in C57BL/6 mouse assessed as induction of serum IL12 production at 50 mg/kg, sc after 2 hrs by luminex multiplex assay. The series is classed as functional, organism-based. On the set-up: dose 50 mg/kg.
In series [23] the test system is Mus musculus. As to the kind of experiment: Stimulation of immune response in C57BL/6 mouse assessed as induction of serum chemokine KC production at 50 mg/kg, sc after 2 hrs by luminex multiplex assay. Type of series: functional, organism-based. On the set-up: dose 50 mg/kg.
For series [24], the system named is Mus musculus. The series can be described thus: Stimulation of immune response in C57BL/6 mouse assessed as induction of serum IL10 production at 50 mg/kg, sc after 2 hrs by luminex multiplex assay. The series is classed as functional, organism-based. More on the design: dose 50 mg/kg.

Activity calls are given as the source filed them. No cut-off for these calls is given here.

The source of these data is ChEMBL document CHEMBL1151840, “Synthetic oligoribonucleotides containing arabinonucleotides act as agonists of TLR7 and 8” (Bioorg Med Chem Lett, 2009).

On to `Nc1ccn([C@@H]2O[C@H](COP(=O)(S)O[C@H]3[C@@H](O)[C@H](n4ccc(=O)[nH]c4=O)O[C@@H]3COP(=O)(S)O[C@H]3[C@H](O)[C@H](n4cnc5c(=O)[nH]c(N)nc54)O[C@@H]3COP(=O)(S)O[C@H]3[C@H](O)[C@H](n4ccc(N)nc4=O)O[C@@H]3COP(=O)(S)O[C@H]3[C@@H](O)[C@H](n4ccc(=O)[nH]c4=O)O[C@@H]3COP(=O)(S)O[C@H]3[C@@H](O)[C@H](n4ccc(=O)[nH]c4=O)O[C@@H]3COP(=O)(S)O[C@H]3[C@@H](O)[C@H](n4cnc5c(=O)[nH]c(N)nc54)O[C@@H]3COP(=O)(S)O[C@H]3[C@@H](O)[C@H](n4ccc(=O)[nH]c4=O)O[C@@H]3COP(=O)(S)O[C@H]3[C@@H](O)[C@H](n4cnc5c(=O)[nH]c(N)nc54)O[C@@H]3COP(=O)(S)OCC(O)COP(=O)(S)O[C@H]3[C@@H](O)[C@H](n4cnc5c(=O)[nH]c(N)nc54)O[C@@H]3COP(=O)(S)O[C@H]3[C@@H](O)[C@H](n4ccc(=O)[nH]c4=O)O[C@@H]3COP(=O)(S)O[C@H]3[C@@H](O)[C@H](n4cnc5c(=O)[nH]c(N)nc54)O[C@@H]3COP(=O)(S)O[C@H]3[C@@H](O)[C@H](n4ccc(=O)[nH]c4=O)O[C@@H]3COP(=O)(S)O[C@H]3[C@@H](O)[C@H](n4ccc(=O)[nH]c4=O)O[C@@H]3COP(=O)(S)O[C@H]3[C@H](O)[C@H](n4ccc(N)nc4=O)O[C@@H]3COP(=O)(S)O[C@H]3[C@@H](O)[C@H](n4cnc5c(=O)[nH]c(N)nc54)O[C@@H]3COP(=O)(S)O[C@H]3[C@@H](O)[C@H](n4ccc(=O)[nH]c4=O)O[C@@H]3COP(=O)(S)O[C@H]3[C@H](O)[C@H](n4ccc(N)nc4=O)O[C@@H]3COP(=O)(S)O[C@H]3[C@@H](O)[C@H](n4cnc5c(=O)[nH]c(N)nc54)O[C@@H]3COP(=O)(S)O[C@H]3[C@@H](O)[C@H](n4ccc(=O)[nH]c4=O)O[C@@H]3CO)[C@@H](OP(=O)(S)OC[C@H]3O[C@@H](n4cnc5c(=O)[nH]c(N)nc54)[C@H](O)[C@@H]3OP(=O)(S)OC[C@H]3O[C@@H](n4ccc(=O)[nH]c4=O)[C@H](O)[C@@H]3OP(=O)(O)S)[C@@H]2O)c(=O)n1` (some centres undefined), for which the remaining at 10 min in series [1] was 76%. In addition, the Activity result in [2] and in series [3] was “Dose-dependent effect” throughout. Also, the outcome in [4], in [5], in series [6], in series [7], in series [8] and in series [9] was Active. Also, the outcome in [10], in series [11], in series [12], in series [13], in [14] and in series [15] was Active. The outcome in series [16], in series [17], in [18], in series [19], in series [20] and in series [21] was Active. Besides, the outcome in series [22], in series [23] and in [24] was Active.
